Consider 13 compounds from ChEMBL document CHEMBL1150041, “Arylpiperazide derivatives of phenylpiperazines as a new class of potent and selective 5-HT1B receptor antagonists” (Bioorg Med Chem Lett, 1997).

In assay [1] the target is T1, 5-hydroxytryptamine receptor 1A (Homo sapiens, UniProt P08908).
T1 sequence (P08908 whole entry): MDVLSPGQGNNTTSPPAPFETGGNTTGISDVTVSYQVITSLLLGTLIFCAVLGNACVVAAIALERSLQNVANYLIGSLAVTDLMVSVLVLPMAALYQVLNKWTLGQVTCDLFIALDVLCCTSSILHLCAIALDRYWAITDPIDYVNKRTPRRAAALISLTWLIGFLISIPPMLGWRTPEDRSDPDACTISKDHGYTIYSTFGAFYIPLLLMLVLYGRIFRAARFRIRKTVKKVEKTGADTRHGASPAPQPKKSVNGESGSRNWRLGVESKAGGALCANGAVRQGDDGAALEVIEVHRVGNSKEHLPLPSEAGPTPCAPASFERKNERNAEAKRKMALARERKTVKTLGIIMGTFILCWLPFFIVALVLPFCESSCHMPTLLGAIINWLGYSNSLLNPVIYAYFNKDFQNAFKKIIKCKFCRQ
Kind of assay: Affinity for 5-hydroxytryptamine 1A receptor subtype.

The target of assay [2] is T2, 5-hydroxytryptamine receptor 1B (Homo sapiens, UniProt P28222). As to the kind of experiment: The compound was evaluated for antagonist potency at human cloned 5-hydroxytryptamine 1B receptor.
T2 sequence (P28222 whole entry): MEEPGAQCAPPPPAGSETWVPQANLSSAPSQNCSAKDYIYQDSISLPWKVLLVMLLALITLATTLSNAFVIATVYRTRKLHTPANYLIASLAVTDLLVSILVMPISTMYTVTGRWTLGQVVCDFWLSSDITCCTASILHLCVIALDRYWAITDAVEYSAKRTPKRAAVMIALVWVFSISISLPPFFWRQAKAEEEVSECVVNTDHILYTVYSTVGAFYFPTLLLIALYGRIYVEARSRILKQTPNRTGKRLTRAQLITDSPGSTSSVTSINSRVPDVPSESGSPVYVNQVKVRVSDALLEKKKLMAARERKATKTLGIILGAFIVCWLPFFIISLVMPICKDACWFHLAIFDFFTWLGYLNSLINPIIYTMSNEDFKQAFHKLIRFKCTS
Assay [3] deals with T2, 5-hydroxytryptamine receptor 1B. As to the kind of experiment: Affinity for 5-hydroxytryptamine 1B receptor subtype.
Assay [4] concerns the target 5-hydroxytryptamine receptor 1D (Homo sapiens, UniProt P28221). Kind of assay: Affinity for 5-hydroxytryptamine 1D receptor subtype.
Assay [5] concerns the target T2, 5-hydroxytryptamine receptor 1B. Kind of assay: The compound was evaluated for intrinsic activity against human cloned 5-hydroxytryptamine 1B receptor.
The target is the same in assay [6]. As to the kind of experiment: The compound was evaluated for intrinsic activity against human cloned 5-hydroxytryptamine 1B receptor; silent antagonist. Type of assay: functional.
For assay [7] the target is unchanged. As to the kind of experiment: The compound was evaluated for intrinsic activity against human cloned 5-hydroxytryptamine 1B receptor; Slient antagonist. Type of assay: functional. As to conditions: filed as antagonist.

5-hydroxytryptamine receptor 1D, sequence (P28221 whole entry): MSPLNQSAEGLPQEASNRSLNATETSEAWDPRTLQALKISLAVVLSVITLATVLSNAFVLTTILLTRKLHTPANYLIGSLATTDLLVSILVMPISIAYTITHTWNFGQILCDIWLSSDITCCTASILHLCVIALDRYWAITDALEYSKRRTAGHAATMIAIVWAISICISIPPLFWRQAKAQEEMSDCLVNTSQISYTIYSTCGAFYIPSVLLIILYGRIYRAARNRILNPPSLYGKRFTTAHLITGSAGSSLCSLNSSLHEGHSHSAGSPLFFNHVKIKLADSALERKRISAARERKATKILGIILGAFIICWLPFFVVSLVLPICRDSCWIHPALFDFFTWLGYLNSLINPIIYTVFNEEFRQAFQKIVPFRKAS

Turning to `COc1ccc(NC(=O)N2CCN(c3ccc(C)cc3C)CC2)cc1N1CCN(C)CC1`, the Ki in assay [1] is 571 nM; in assay [3], 1.8 nM; in assay [4], 88 nM. Moreover, in assay [2], the KB came out at 1.9 nM.
Take `COc1cccc(N2CCN(C(=O)Nc3ccc(OC)c(N4CCN(C)CC4)c3)CC2)c1`: the values for the Ki in assay [1], in assay [3] and in assay [4] were 79 nM, 8 nM and 70 nM, respectively.
Consider `COc1ccc(NC(=O)N2CCN(c3cccc4c3CCCC4)CC2)cc1N1CCN(C)CC1`, for which, in assay [5], the Kb is 39 nM. Also, the values for the Ki in assay [1], in assay [3] and in assay [4] were 257 nM, 0.5 nM and 26 nM, respectively.
As for `COc1ccc(NCC(=O)N2CCN(c3ccccc3C)CC2)cc1N1CCN(C)CC1`, the Kb in assay [6] was found to be 195 nM. Moreover, the results for the Ki in assay [3] and in assay [4] were 40 nM and 420 nM, respectively.
As for `COc1ccc(NC(=O)N2CCN(c3ccccc3C)CC2)cc1N1CCN(C)CC1`, the Kb in assay [6] worked out at 12 nM. For the same compound, in assay [1], affinity was put at a Ki of 390 nM.
With `Cc1nc(-c2ccc(-c3ccc(C(=O)N4CCc5cc6c(cc54)C4(CCN(C)CC4)CO6)cc3)c(C)c2)no1` [SB-224289], the Ki in assay [1] was greater than 1000 nM.
As to `COc1ccc(NC(=O)N2CCN(c3ccccc3OC)CC2)cc1N1CCN(C)CC1`, in assay [5], the Kb worked out at 16 nM. The same compound gave a Ki in assay [4] of 90 nM.
In assay [5], `COc1ccc(NC(=O)N2CCN(c3ccccc3)CC2)cc1N1CCN(C)CC1` gave a Kb of 27 nM. Besides, the values for the Ki in assay [1], in assay [3] and in assay [4] were 450 nM, 18 nM and 340 nM, respectively.
In assay [6], `Cc1ccccc1N1CCN(C(=O)COc2ccc(Cl)c(N3CCN(C)CC3)c2)CC1` registered a Kb of 38 nM. For the same compound, the Ki in assay [1] is greater than 1000 nM; in assay [3] it was 11 nM; in assay [4] it was 240 nM.
Regarding `Cc1ccccc1N1CCN(C(=O)Oc2ccc(Cl)c(N3CCN(C)CC3)c2)CC1`, the Ki in assay [1] was greater than 1000 nM; in assay [3] it was 150 nM; in assay [4], 3.6 nM. For the same compound, in assay [7], the Intrinsic activity entry is “Antagonist”.
Consider `COc1ccc(NC(=O)N2CCN(c3c(C)cccc3C)CC2)cc1N1CCN(C)CC1`, for which the Ki worked out at 393 nM in assay [1], 1.3 nM in assay [3] and 37 nM in assay [4]. Also, the KB in assay [2] is 10 nM.
Take `COc1ccc(NC(=O)c2ccc(-c3ccc(-c4noc(C)n4)cc3C)cc2)cc1N1CCN(C)CC1` [GR-127935]: the Ki was 72 nM in assay [1] and 0.14 nM in assay [3].
Consider `COc1ccc(N2CCN(C(=O)Nc3ccc(OC)c(N4CCN(C)CC4)c3)CC2)cc1`, for which, in assay [5], the Kb was found to be 12 nM.

Broadly, the Ki is the equilibrium dissociation constant of an inhibitor or competing ligand from its target. A lower Ki goes with tighter binding. The term KB denotes the equilibrium dissociation constant of an antagonist, usually derived from a functional assay. High values mean a less potent antagonist, low ones a more potent antagonist.
